In patent US9796733B2, “Imidazo-pyrazine derivatives useful as soluble guanylate cyclase activators” (Merck Sharp & Dohme Corp., priority 2014, dated 2017):

Molecular target: T1, sGC α1/β1 heterodimer (Homo sapiens, UniProt Q02108+Q02153)
T1 construct: expressed in transfected cells; host or cells: CHO-K1 (clone #7, CHO-K1/sGC)
T1 sequence (Q02108 1-690): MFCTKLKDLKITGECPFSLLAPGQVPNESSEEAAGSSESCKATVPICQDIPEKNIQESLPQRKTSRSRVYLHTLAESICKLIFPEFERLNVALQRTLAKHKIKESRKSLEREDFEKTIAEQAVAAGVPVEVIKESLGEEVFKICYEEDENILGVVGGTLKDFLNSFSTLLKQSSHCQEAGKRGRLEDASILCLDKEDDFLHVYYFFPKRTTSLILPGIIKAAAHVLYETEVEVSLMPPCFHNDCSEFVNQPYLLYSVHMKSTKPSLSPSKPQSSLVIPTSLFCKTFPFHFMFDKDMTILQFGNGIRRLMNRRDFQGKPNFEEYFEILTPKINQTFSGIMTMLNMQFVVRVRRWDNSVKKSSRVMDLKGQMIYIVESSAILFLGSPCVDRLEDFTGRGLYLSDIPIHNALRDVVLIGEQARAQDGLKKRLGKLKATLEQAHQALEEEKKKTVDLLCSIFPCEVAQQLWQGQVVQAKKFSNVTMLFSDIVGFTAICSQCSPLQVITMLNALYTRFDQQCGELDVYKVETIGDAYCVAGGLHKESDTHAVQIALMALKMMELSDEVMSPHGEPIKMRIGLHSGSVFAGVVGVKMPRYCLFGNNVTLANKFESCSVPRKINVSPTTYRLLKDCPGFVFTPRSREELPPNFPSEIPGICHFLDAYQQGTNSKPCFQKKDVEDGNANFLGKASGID
T1 sequence (Q02153 1-619): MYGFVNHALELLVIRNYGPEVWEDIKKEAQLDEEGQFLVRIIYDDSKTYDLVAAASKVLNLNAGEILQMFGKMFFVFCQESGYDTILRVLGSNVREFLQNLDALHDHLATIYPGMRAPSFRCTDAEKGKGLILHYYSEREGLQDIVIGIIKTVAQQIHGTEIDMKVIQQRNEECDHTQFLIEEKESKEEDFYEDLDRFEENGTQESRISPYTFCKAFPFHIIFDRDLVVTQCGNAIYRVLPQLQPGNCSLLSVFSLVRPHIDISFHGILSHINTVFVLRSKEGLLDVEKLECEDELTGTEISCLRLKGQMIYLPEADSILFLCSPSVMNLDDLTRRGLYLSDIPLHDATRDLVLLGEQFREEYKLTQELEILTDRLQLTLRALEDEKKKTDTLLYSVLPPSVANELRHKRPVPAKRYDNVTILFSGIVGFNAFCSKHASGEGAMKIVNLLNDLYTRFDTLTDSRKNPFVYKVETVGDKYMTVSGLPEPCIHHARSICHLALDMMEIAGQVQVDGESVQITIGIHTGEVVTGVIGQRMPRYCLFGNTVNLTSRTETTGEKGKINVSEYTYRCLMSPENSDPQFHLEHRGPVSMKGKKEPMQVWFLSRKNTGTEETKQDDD
Assay: Cell-based sGC functional assay (CASA assay): cGMP generation in CHO-K1/sGC cells, HTRF detection
Settings: for Emax: CHO-K1, percent activation relative to standard Compound A in CHO-K1/sGC cells, read-out: % Act.; for EC50: inflection point (IP) of cGMP generation in CHO-K1/sGC cells, 4P fit, activity expressed as percentage of Compound A
Summary of the method: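 Stable CHO-K1/sGC cells in EBSS buffer with 5 mM MgCl2, 0.05% BSA and 0.5 mM IBMX were incubated with compound (2.5% DMSO final) ±1 μM DETA-NO for 1 hr at 37° C. cGMP was measured by HTRF. Activation is expressed as % of reference HDA Compound A maximum, with IP and max fold induction from a 4P fit.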

SMILES	Emax	EC50
CC1(c2ccc(Cl)cc2)C(=O)Nc2nc(-c3cn4ccnc4cn3)nc(NCC(F)(F)F)c21 (stereo not drawn) [Example 288A, 5-(4-chlorophenyl)-2-(imidazo[1,2-a]pyrazin-6-yl)-5-methyl-4-((2,2,2-trifluoroethyl)amino)-5H-pyrrolo[2,3-d]pyrimidin-6(7H)-one]	119%	12 nM
CC1(c2ccc(Cl)cc2)C(=O)Nc2nc(-c3cn4ccnc4cn3)nc(NCCC(F)(F)F)c21 (stereo not drawn) [Example 289A, 5-(4-chlorophenyl)-2-(imidazo[1,2-a]pyrazin-6-yl)-5-methyl-4-((3,3,3-trifluoropropyl)amino)-5H-pyrrolo[2,3-d]pyrimidin-6(7H)-one]	106%	289 nM
CN(C)c1nc(-c2cn3ccnc3c(CCC(F)(F)C(F)(F)F)n2)nc2c1C(C)(c1ccc(F)cn1)C(=O)N2 (stereo not drawn) [Example 291B, 4-(dimethylamino)-5-(5-fluoropyridin-2-yl)-5-methyl-2-(8-(3,3,4,4,4-pentafluorobutyl)imidazo[1,2-a]pyrazin-6-yl)-5H-pyrrolo[2,3-d]pyrimidin-6(7H)-one]	126%	786 nM
CC1(c2ccc(F)cn2)C(=O)Nc2nc(-c3cn4ccnc4c(CCC(F)(F)C(F)(F)F)n3)nc(NC3CC3)c21 (stereo not drawn) [Example 292B, 4-(cyclopropylamino)-5-(5-fluoropyridin-2-yl)-5-methyl-2-(8-(3,3,4,4,4-pentafluorobutyl)imidazo[1,2-a]pyrazin-6-yl)-5H-pyrrolo[2,3-d]pyrimidin-6(7H)-one]	148%	951 nM
COCCNc1nc(-c2cn3ccnc3c(CCC(F)(F)C(F)(F)F)n2)nc2c1C(C)(c1ccc(F)cn1)C(=O)N2 (stereo not drawn) [Example 293B, 5-(5-fluoropyridin-2-yl)-4-((2-methoxyethyl)amino)-5-methyl-2-(8-(3,3,4,4,4-pentafluorobutyl)imidazo[1,2-a]pyrazin-6-yl)-5H-pyrrolo[2,3-d]pyrimidin-6(7H)-one]	107%	509 nM
CC1(c2ccc(F)cn2)C(=O)Nc2nc(-c3cn4ccnc4c(CCC(F)(F)C(F)(F)F)n3)nc(N3CCOCC3)c21 (stereo not drawn) [Example 294B, 5-(5-fluoropyridin-2-yl)-5-methyl-4-morpholino-2-(8-(3,3,4,4,4-pentafluorobutyl)imidazo[1,2-a]pyrazin-6-yl)-5H-pyrrolo[2,3-d]pyrimidin-6(7H)-one]	89%	444 nM
CN1CCN(c2nc(-c3cn4ccnc4c(CCC(F)(F)C(F)(F)F)n3)nc3c2C(C)(c2ccc(F)cn2)C(=O)N3)CC1 (stereo not drawn) [Example 295B, 5-(5-fluoropyridin-2-yl)-5-methyl-4-(4-methylpiperazin-1-yl)-2-(8-(3,3,4,4,4-pentafluorobutyl)imidazo[1,2-a]pyrazin-6-yl)-5H-pyrrolo[2,3-d]pyrimidin-6(7H)-one]	96%	671 nM
COCCNc1nc(-c2cn3ccnc3c(CCC(F)(F)F)n2)nc2c1C(C)(c1ccc(Cl)cc1)C(=O)N2 (stereo not drawn) [Example 296A, 5-(4-chlorophenyl)-4-((2-methyoxyethyl)amino)-5-methyl-2-(8-(3,3,3-trifluoropropyl)imidazo[1,2-a]pyrazin-6-yl)-5H-pyrrolo[2,3-d]pyrimidin-6(7H)-one]	77%	142 nM
CC1(c2ccc(Cl)cc2)C(=O)Nc2nc(-c3cn4ccnc4c(CCC(F)(F)F)n3)nc(N3CCOCC3)c21 (stereo not drawn) [Example 297A, 5-(4-chlorophenyl)-5-methyl-4-morpholino-2-(8-(3,3,3-trifluoropropyl)imidazo[1,2-a]pyrazin-6-yl)-5H-pyrrolo[2,3-d]pyrimidin-6(7H)-one]	101%	466 nM
CCOC(=O)CCNc1nc(-c2cn3ccnc3c(CCC(F)(F)F)n2)nc2c1C(C)(c1ccc(Cl)cc1)C(=O)N2 (stereo not drawn) [Example 298A, ethyl 3-((5-(4-chlorophenyl)-5-methyl-6-oxo-2-(8-(3,3,3-trifluoropropyl)imidazo[1,2-a]pyrazin-6-yl)-6,7-dihydro-5H-pyrrolo[2,3-d]pyrimidin-4-yl)amino)propanoate]	114%	121 nM
CC1(c2ccc(F)cc2)C(=O)Nc2nc(-c3cn4ccnc4c(CCC(F)(F)C(F)(F)F)n3)nc(N3CCN(S(C)(=O)=O)CC3)c21 (stereo not drawn) [Example 299A, 5-(4-fluorophenyl)-5-methyl-4-(4-(methylsulfonyl)piperazin-1-yl)-2-(8-(3,3,4,4,4-pentafluorobutyl)imidazo[1,2-a]pyrazin-6-yl)-5H-pyrrolo[2,3-d]pyrimidin-6(7H)-one]	114%	624 nM
CC1(c2ccc(F)cc2)C(=O)Nc2nc(-c3cn4ccnc4c(CCC(F)(F)C(F)(F)F)n3)nc(N3CCSCC3)c21 (stereo not drawn) [Example 300A, 5-(4-fluorophenyl)-5-methyl-2-(8-(3,3,4,4,4-pentafluorobutyl)imidazo[1,2-a]pyrazin-6-yl)-4-thiomorpholine-5H-pyrrolo[2,3-d]pyrimidin-6(7H)-one]	136%	492 nM
CC1(c2ccc(F)cc2)C(=O)Nc2nc(-c3cn4ccnc4c(CCC(F)(F)C(F)(F)F)n3)nc(N3CCCC3)c21 (stereo not drawn) [Example 301A, 5-(4-fluorophenyl)-5-methyl-2-(8-(3,3,4,4,4-pentafluorobutyl)imidazo[1,2-a]pyrazin-6-yl)-4-(pyrrolidin-1-yl)-5H-pyrrolo[2,3-d]pyrimidin-6(7H)-one]	116%	317 nM
CC1(C)CN(c2nc(-c3cn4ccnc4c(CCC(F)(F)C(F)(F)F)n3)nc3c2C(C)(c2ccc(F)cc2)C(=O)N3)C1 (stereo not drawn) [Example 302A, 4-(3,3-dimethylazetidin-1-yl)-5-(4-fluorophenyl)-5-methyl-2-(8-(3,3,4,4,4-pentafluorobutyl)imidazo[1,2-a]pyrazin-6-yl)-5H-pyrrolo[2,3-d]pyrimidin-6(7H)-one]	105%	551 nM
C[C@@H]1CN(c2nc(-c3cn4ccnc4c(CCC(F)(F)C(F)(F)F)n3)nc3c2C(C)(c2ccc(F)cc2)C(=O)N3)C[C@H](C)O1 (stereo partly drawn) [Example 303A, 4-((2R,6S)-2,6-dimethylmorpholino)-5-(4-fluorophenyl)-5-methyl-2-(8-(3,3,4,4,4-pentafluorobutyl)imidazo[1,2-a]pyrazin-6-yl)-5H-pyrrolo[2,3-d]pyrimidin-6(7H)-one]	101%	425 nM
CC1(C)CN(c2nc(-c3cn4ccnc4c(CCC(F)(F)C(F)(F)F)n3)nc3c2C(C)(c2ccc(F)cc2)C(=O)N3)CCO1 (stereo not drawn) [Example 304A, 4-(2,2-dimethylmorpholino)-5-(4-fluorophenyl)-5-mehtyl-2-(8-(3,3,4,4,4-pentafluorobutyl)imidazo[1,2-a]pyrazin-6-yl)-5H-pyrrolo[2,3-d]pyrimidin-6(7H)-one]	89%	415 nM
CC1CN(c2nc(-c3cn4ccnc4c(CCC(F)(F)C(F)(F)F)n3)nc3c2C(C)(c2ccc(F)cc2)C(=O)N3)C1 (stereo not drawn) [Example 305A, 5-(4-fluorophenyl)-5-methyl-4-(3-methylazetidin-1-yl)-2-(8-(3,3,4,4,4-pentafluorobutyl)imidazo[1,2-a]pyrazin-6-yl)-5H-pyrrolo[2,3-d]pyrimidin-6(7H)-one]	158%	147 nM
CC1(c2ccc(F)cc2)C(=O)Nc2nc(-c3cn4ccnc4c(CCC(F)(F)C(F)(F)F)n3)nc(N3CCC3)c21 (stereo not drawn) [Example 306A, 4-(azetidin-1-yl)-5-(4-fluorophenyl)-5-methyl-2-(8-(3,3,4,4,4-pentafluorobutyl)imidazo[1,2-a]pyrazin-6-yl)-5H-pyrrolo[2,3-d]pyrimidin-6(7H)-one]	108%	108 nM
